Laboratory results from publication PMC6389928, “Biomolecular Interaction, Anti-Cancer and Anti-Angiogenic Properties of Cobalt(III) Schiff Base Complexes” (Scientific Reports, 2019).
Like-named read-outs stand apart in the source and are kept apart here.

Columns and labels:
DNA [1] = test: Viscosity measurement of DNA; format: binding; conditions: 30.0 ± 0.2 °C, increasing amounts of compound
Source text: The mode of interaction between DNA and complexes has been further confirmed using viscosity measurements. The intercalation between DNA and metal complex causes lengthening of the DNA helix and increases DNA’s relative viscosity. Ethidium bromide (EB) is a well known DNA intercalator which was used as a standard to make sure our viscosity determination was working properly. […] The increase in relative viscosity follows the DNA-intercalating ability and the order of relative viscosity is EB > 2 > 1.
CD spectra of CT–DNA in the absence and presence of cobalt(III) complexes 1 and 2 were recorded in phosphate buffer. Each sample solution was scanned in the range of 200–320 nm, and final CD spectra were generated after averaging three scans subtracting the buffer background. Viscosity experiments were performed using an Ubbelohde viscometer at a constant temperature (30.0 ± 0.2 °C).

DNA [2] = conditions: cited from earlier work
A549 lung carcinoma cell = test: MTT assay on A549 cells; conditions: A549 lung cancer cells, tested separately
Source text: The anti-proliferative property of the complexes 1 and 2 at different concentrations on A549 lung carcinoma cell and monkey kidney epithelial cell Vero was examined by adopting MTT assay (Fig. S7). […] The naked cobalt acetate and ligands salen and salophen were separately tested on A549 cells to understand if metal chelation is the principal basis of the anticancer activity of the complexes.
Culture: Human lung cancer cells (A549) were received from National Centre for Cell Science (NCCS) Pune, India. Vero cells were obtained from ATCC. The cells were grown at humidified atmosphere of 5% CO2 in an incubator at 37 °C (Forma, Thermo Scientific, USA) in DMEM medium (Invitrogen) containing 10% FBS (Sigma-Aldrich, St. Louis, Mo, USA), 100 μg/mL of penicillin and 100 μg/mL streptomycin were used as antibiotics (Himedia, Mumbai, India). […] The cells were seeded in 96 well plates (5000 A549 cells per well) and allowed to attach for 24 h. The cells were then incubated with different concentrations of the metal complexes 1 and 2 dissolved in 100% dimethyl sulfoxide (DMSO) (Sigma-Aldrich) and prepared to a final dilution of 0.02% of DMSO.
In the determination of IC50 value, 0.02% DMSO was used as the solvent control. After the end of incubation period (24 h), the medium was aspirated carefully and replaced with new medium. The formazan formed was dissolved in100 μL of 100% DMSO to each well. The absorbance was monitored at 570 nm using a 96 well plate reader (Bio-Rad, Hercules, California, USA). All experiments were repeated for a minimum of three times when each experiment was done in two replicates.

Compound | Kb (DNA [2]) [M⁻¹] | concentration up to which not cytotoxic (A549 lung carcinoma cell) [µM] | further results
CC[n+]1c(-c2ccccc2)c2cc(N)ccc2c2ccc(N)cc21 [EB, ethidium bromide, reference compound] |  |  | effect on relative viscosity of DNA (DNA [1]): significant increase in the viscosity of the DNA solutions; Kb (DNA [2]; typical classical intercalator): 494000 M⁻¹
CCCCCCCCCCCCN.CCCCCCCCCCCCN.NCCNCCN.[Cl-].[Co+3].[O-][Cl+3]([O-])([O-])[O-].[O-][Cl+3]([O-])([O-])[O-] [[Co(dien)(DA)2Cl](ClO4)2] | 14318 |  | 
CCCCCCCCCCCCN.NCCNCCN.[Cl-].[Cl-].[Co+3].[O-][Cl+3]([O-])([O-])[O-] [[Co(dien)(DA)Cl2](ClO4)] | 3110.8 |  | 
CCCCCCCCCCCN.[Cl-].[Co+3].[O-][Cl+3]([O-])([O-])[O-].[O-][Cl+3]([O-])([O-])[O-].c1ccc(-c2ccccn2)nc1.c1ccc(-c2ccccn2)nc1 [cis-[Co(bpy)2(C11H23NH2)Cl](ClO4)2] | 22100 |  | 
CCCCCCCCCCCCCCN.[Cl-].[Co+3].[O-][Cl+3]([O-])([O-])[O-].[O-][Cl+3]([O-])([O-])[O-].c1ccc(-c2ccccn2)nc1.c1ccc(-c2ccccn2)nc1 [cis-[Co(bpy)2(C14H29NH2)Cl](ClO4)2] | 28600 |  | 
CCCCCCCCCCCCCCN.NCCN.NCCN.[Cl-].[Co+3].[O-][Cl+3]([O-])([O-])[O-].[O-][Cl+3]([O-])([O-])[O-] [cis-[Co(en)2(C14H29NH2)Cl](ClO4)2] | 25900 |  | 
CC(=O)[O-].CC(=O)[O-].O.O.O.O.[Co+2] [cobalt acetate, Cobalt(II) acetate tetrahydrate] |  | > 200 | 
Oc1ccccc1C=NCCN=Cc1ccccc1O [salen, N,N’-bis(salicylidene)ethylenediamine] |  | > 200 | 
Oc1ccccc1C=Nc1ccccc1N=Cc1ccccc1O [salophen, N,N’-bis(salicylidene)-1,2-phenylenediamine] |  | > 200 | 
[Co(dien)(CA)Cl2](ClO4) | 9005.2 |  | 
